Holding throughout (type): functional
One assay concerns SF-268. In words: Growth inhibition of human SF268 cells after 48 hrs by SRB assay. To be noted: SF-268, 48 h. (In general: The SRB assay estimates cell density from bound dye.)
Another assay relates to EKVX. In words: Growth inhibition of human EKVX cells after 48 hrs by SRB assay.
For a further assay, the system named is Malme-3M. In words: Growth inhibition of human MALME-3M cells after 48 hrs by SRB assay.
The subject of the next assay is SNB-19. As to the kind of experiment: Growth inhibition of human SNB19 cells after 48 hrs by SRB assay. To be noted: SNB-19, 48 h.
A further assay deals with SN12C. As to the kind of experiment: Growth inhibition of human SN12C cells after 48 hrs by SRB assay.
Another assay has as its system OVCAR-3. As to the kind of experiment: Growth inhibition of human OVCAR3 cells after 48 hrs by SRB assay. To be noted: OVCAR-3, 48 h.
The subject of a further assay is NCI-H23. As to the kind of experiment: Growth inhibition of human NCI-H23 cells after 48 hrs by SRB assay. The following applies: NCI-H23, 48 h.
Another assay deals with LOX IMVI. As to the kind of experiment: Growth inhibition of human LOXIMVI cells after 48 hrs by SRB assay.
A further assay relates to UACC-257. As to the kind of experiment: Growth inhibition of human UACC257 cells after 48 hrs by SRB assay. To be noted: UACC-257, 48 h.
For a further assay, the system named is DU-145. In words: Growth inhibition of human DU145 cells after 48 hrs by SRB assay. To be noted: DU-145, 48 h.
For the next assay, the system named is HL-60(TB). As to the kind of experiment: Growth inhibition of human HL-60(TB) cells after 48 hrs by SRB assay. To be noted: HL-60, 48 h.
Assay [1] is described as follows: Growth inhibition of human NCI-ADR-RES cells after 48 hrs by SRB assay.
The next assay deals with UACC-62. In words: Growth inhibition of human UACC62 cells after 48 hrs by SRB assay. To be noted: UACC-62, 48 h.
Another assay has as its system K562. As to the kind of experiment: Growth inhibition of human K562 cells assessed as cell growth at 10^-5 M after 48 hrs by SRB assay. The following applies: K562, 48 h, read-out: Activity.
The mark [2] stands for this setting: read-out: LC50 (the source's name).

For `O=C(CO[N+](=O)[O-])Nc1ccc(C(=O)/C=C/c2ccc(Cl)cc2)cc1`, the GI50 (usually the concentration that inhibits growth by half) in the assay with SF-268 worked out at 2.62 µM; in the assay on EKVX, 15 µM; in the assay on Malme-3M, 2.13 µM; in the assay with SNB-19, 4.11 µM; in the assay with SN12C, 3.15 µM; in the assay on OVCAR-3, 2.22 µM. Besides, the GI50 with NCI-H23 is 4.55 µM; with LOX IMVI, 1.59 µM; in the assay on UACC-257, 4.33 µM; with DU-145, 3.41 µM; in the assay on HL-60(TB), 3.59 µM; in assay [1] it was 3.87 µM. Moreover, in the assay on UACC-62, the GI50 was 2.76 µM. The TGI (usually the concentration giving total growth inhibition) in the assay on SF-268 was 11.7 µM; with EKVX it was 74.6 µM; in the assay with Malme-3M it was 6.61 µM; in the assay on SNB-19, 18.4 µM; in the assay on SN12C, 14.1 µM; in the assay with OVCAR-3, 6.55 µM. Further, the TGI is 22.1 µM with NCI-H23; 3.51 µM with LOX IMVI; 15.9 µM in the assay with UACC-257; 13.5 µM in the assay on DU-145; more than 100 µM in the assay on HL-60(TB); more than 100 µM in assay [1]. The molecule further had a TGI with UACC-62 of 11 µM. Moreover, the CC50 with SF-268 (setting [2]) was 38 µM; in the assay on EKVX (setting [2]) it was more than 100 µM; with Malme-3M (setting [2]) it was 76.2 µM; with SNB-19 (setting [2]), 64 µM; in the assay on SN12C (setting [2]) it was 49.6 µM; in the assay on OVCAR-3 (setting [2]), 23.9 µM. Also, the CC50 in the assay with NCI-H23 (setting [2]) was 81.1 µM; with LOX IMVI (setting [2]), 7.74 µM; in the assay on UACC-257 (setting [2]), 40.7 µM; with DU-145 (setting [2]) it was 36.7 µM; in the assay on HL-60(TB) (setting [2]) it was more than 100 µM; in [1] (setting [2]) it was more than 100 µM. In addition, the CC50 in the assay with UACC-62 (setting [2]) came to 51.3 µM.

For the molecule `O=C(CO[N+](=O)[O-])Nc1ccc(C(=O)/C=C/c2ccc3c(c2)OCO3)cc1`, in the assay on K562, the growth at 10 µM was found to be 59.1%.
